Converted amounts (≈) assume the structure as drawn.
Legend:
[1] = target: T1, C5a anaphylatoxin chemotactic receptor 1 (Homo sapiens) (UniProt P21730); test: Inhibition of radiolabeled C5a binding to its membrane bound C5a anaphylatoxin chemotactic receptor
T1 sequence (whole entry): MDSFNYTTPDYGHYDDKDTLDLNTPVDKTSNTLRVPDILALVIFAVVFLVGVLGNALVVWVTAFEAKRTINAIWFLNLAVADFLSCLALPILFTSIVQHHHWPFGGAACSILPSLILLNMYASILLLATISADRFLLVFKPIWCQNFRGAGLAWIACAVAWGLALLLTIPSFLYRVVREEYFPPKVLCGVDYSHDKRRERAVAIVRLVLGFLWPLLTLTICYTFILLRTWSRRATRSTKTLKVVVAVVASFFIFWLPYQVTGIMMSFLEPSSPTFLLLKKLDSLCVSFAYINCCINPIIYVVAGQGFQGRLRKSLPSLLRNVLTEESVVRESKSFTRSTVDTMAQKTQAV

[2] = target: T1, C5a anaphylatoxin chemotactic receptor 1 (Homo sapiens); test: Nonspecific degranulation of polymorho neutrophils as measured by myeloperoxidase (MPO) release in a whole functional cell assay
[3] = target: T2, C5a anaphylatoxin chemotactic receptor 1 (Homo sapiens, UniProt P21730); test: Inhibitory activity against purified binding C5a anaphylatoxin chemotactic receptor
T2 sequence (P21730 whole entry): T1 sequence (whole entry)

[4] = target: T2, C5a anaphylatoxin chemotactic receptor 1; test: Inhibitory activity for C5a anaphylatoxin chemotactic receptor binding using radiolabeled C5a receptor on neutrophil membranes (~2.0 uM)
[5] = target: T2, C5a anaphylatoxin chemotactic receptor 1; test: Inhibitory activity against radiolabeled C5a receptor on neutrophil membranes expressing C5a anaphylatoxin chemotactic receptor
[6] = target: T1, C5a anaphylatoxin chemotactic receptor 1 (Homo sapiens); test: Compound was evaluated for inhibition of radiolabeled C5a binding to its membrane C5a anaphylatoxin chemotactic receptor
Homo sapiens = organism: Homo sapiens; test: Degranulation of polymorho neutrophils as measured by myeloperoxidase (MPO) release in a whole functional cell assay

Compound	Activity [1] [µg/mL]	Concentration causing nonspecific degranulation (MPO release) [2] [µg/mL]	further results
CC[C@@H](C)CC1CCC(O)([C@](C)(O)C(=O)NC2C(=O)N3NCCC[C@@H]3C(=O)N(O)[C@@H](C)C(=O)NCCC(=O)N3NCCC[C@H]3C(=O)N(O)[C@H](C)C(=O)O[C@H]2C(C)C)OC1C (stereo not given in full)	> 100	> 50	
CC(C)[C@@H]1OC(=O)[C@@H](C)N(O)C(=O)[C@@H]2CCCNN2C(=O)CNC(=O)[C@H](C)N(O)C(=O)[C@H]2CCCNN2C(=O)[C@H]1NC(=O)[C@](C)(O)CCCc1ccccc1	100	12	
CC[C@H](C)C[C@H]1CC[C@](O)([C@](C)(O)C(=O)N[C@@H]2C(=O)N3NCCC[C@@H]3C(=O)N(OCc3ccccc3)[C@@H](C)C(=O)NCC(=O)N3NCCC[C@H]3C(=O)N[C@H](C)C(=O)O[C@H]2C(C)C)O[C@@H]1C	> 100	18	
CC[C@H](C)C[C@H]1CC[C@](O)([C@](C)(O)C(=O)N[C@@H]2C(=O)N3NCCC[C@@H]3C(=O)N(C)[C@@H](C)C(=O)NCC(=O)N3NCCC[C@H]3C(=O)N(O)[C@H](C)C(=O)O[C@H]2C(C)C)O[C@@H]1C	5	2	
CC[C@H](C)C[C@H]1CC[C@](O)([C@](C)(O)C(=O)N[C@@H]2C(=O)N3NCCC[C@@H]3C(=O)N(CC(=O)OC(C)(C)C)[C@@H](C)C(=O)NCC(=O)N3NCCC[C@H]3C(=O)N(O)[C@H](C)C(=O)O[C@H]2C(C)C)O[C@@H]1C	100	> 50	
CC[C@H](C)C[C@H]1CC[C@](O)([C@](C)(O)C(=O)N[C@@H]2C(=O)N3CCCC[C@@H]3C(=O)N(O)[C@@H](C)C(=O)NCC(=O)N3NCCC[C@H]3C(=O)N(O)[C@H](C)C(=O)O[C@H]2C(C)C)O[C@@H]1C	75	20	
CCC(C)C[C@H]1CC[C@](O)([C@](C)(O)C(=O)N[C@@H]2C(=O)N3NCCC[C@@H]3C(=O)N(O)[C@@H](C)C(=O)NCC(=O)N3NCCC[C@H]3C(=O)N[C@H](C)C(=O)OC2C)O[C@@H]1C (single isomer, unassigned)	2	1	
CC[C@H](C)C[C@H]1CC[C@](O)([C@](C)(O)C(=O)N[C@@H]2C(=O)N3NCCC[C@@H]3C(=O)N(OC)[C@@H](C)C(=O)NCC(=O)N3NCCC[C@H]3C(=O)N(C)[C@H](C)C(=O)O[C@H]2C(C)C)O[C@@H]1C	7	20	
CC[C@H](C)C[C@H]1CC[C@](O)([C@](C)(O)C(=O)N[C@@H]2C(=O)N3NCCC[C@@H]3C(=O)N(C(C)=O)[C@@H](C)C(=O)NCC(=O)N3NCCC[C@H]3C(=O)N(O)[C@H](C)C(=O)O[C@H]2C(C)C)O[C@@H]1C	4	0.3	
CC(O)C(=O)N[C@@H]1C(=O)N2NCCC[C@@H]2C(=O)N(O)[C@@H](C)C(=O)NCC(=O)N2NCCC[C@H]2C(=O)N(O)[C@H](C)C(=O)O[C@H]1C(C)C (stereo in doubt; 25)	23	23	
CC[C@H](C)C[C@H]1CC[C@](O)([C@](C)(O)C(=O)N[C@@H]2C(=O)N3NCCC[C@@H]3C(=O)N(O)[C@@H](C)C(=O)NCC(=O)N3NCCC[C@H]3C(=O)N[C@H](C)C(=O)O[C@H]2C(C)C)O[C@@H]1C	21	7	
CC[C@H](C)C[C@H]1CC[C@](O)([C@](C)(O)C(=O)N[C@@H]2C(=O)N3NCCC[C@@H]3C(=O)N(OCc3ccccc3)[C@@H](C)C(=O)NCC(=O)N3NCCC[C@H]3C(=O)N(O)[C@H](C)C(=O)O[C@H]2C(C)C)O[C@@H]1C	4	0.6	
CC(O)C(=O)N[C@@H]1C(=O)N2NCCC[C@@H]2C(=O)N(O)[C@@H](C)C(=O)NCC(=O)N2NCCC[C@H]2C(=O)N(O)[C@H](C)C(=O)O[C@H]1C(C)C (stereo in doubt; 26)	> 100	> 20	
CC[C@H](C)C[C@H]1CC[C@](O)([C@](C)(O)C(=O)N[C@@H]2C(=O)N3NCCC[C@@H]3C(=O)N(O)[C@@H](C)C(=O)NCC(=O)N3NCCC[C@H]3C(=O)N(C)[C@H](C)C(=O)O[C@H]2C(C)C)O[C@@H]1C	5	4	
CC[C@H](C)C[C@H]1CC[C@](O)([C@](C)(O)C(=O)N[C@@H]2C(=O)N3NCCC[C@@H]3C(=O)N(O)[C@@H](C)C(=O)NCC(=O)N3NCCC[C@H]3C(=O)N(O)[C@H](C)C(=O)O[C@H]2C(C)C)O[C@@H]1C		0.27	IC50 [3]: 5.95 µM; IC50 [4]: 2.02 µM; IC50 [5]: 5.95 µM; Activity [6]: 1.8 µg/mL; EC50 (Homo sapiens): 0.28 mg/L (≈ 0.333 µM)
CC[C@H](C)C[C@H]1CC[C@](O)([C@](C)(O)C(=O)N[C@@H]2C(=O)N3NCCC[C@@H]3C(=O)N(OC)[C@@H](C)C(=O)NCC(=O)N3NCCC[C@H]3C(=O)N(O)[C@H](C)C(=O)O[C@H]2C(C)C)O[C@@H]1C	5	0.3	
CC[C@H](C)C[C@H]1CC[C@](O)([C@](C)(O)C(=O)N[C@@H]2C(=O)N[C@H](CCCN)C(=O)N(O)[C@@H](C)C(=O)NCC(=O)N3NCCC[C@H]3C(=O)N(O)[C@H](C)C(=O)O[C@H]2C(C)C)O[C@@H]1C	60	> 200	
CCC(C)C[C@H]1CC[C@](O)([C@](C)(O)C(=O)N[C@@H]2C(=O)N3NCCC[C@@H]3C(=O)N[C@@H](C)C(=O)NCC(=O)N3NCCC[C@H]3C(=O)N[C@H](C)C(=O)O[C@H]2C(C)C)O[C@@H]1C (single isomer, unassigned)	40	> 50	
CC(=O)C(=O)N[C@@H]1C(=O)N2NCCC[C@@H]2C(=O)N(O)[C@@H](C)C(=O)NCC(=O)N2NCCC[C@H]2C(=O)N(O)[C@H](C)C(=O)O[C@H]1C(C)C	> 100	> 13	
CC[C@H](C)C[C@H]1CC[C@](O)([C@](C)(O)C(=O)N[C@@H]2C(=O)N3NCCC[C@@H]3C(=O)N[C@@H](C)C(=O)NCC(=O)N3NCCC[C@H]3C(=O)N(O)[C@H](C)C(=O)O[C@H]2C(C)C)O[C@@H]1C	> 100		
CC[C@H](C)C[C@H]1CC[C@](O)([C@](C)(O)C(=O)N[C@@H]2C(=O)N3[C@H](CCCN3C)C(=O)N(O)[C@@H](C)C(=O)NCC(=O)N3[C@@H](CCCN3C)C(=O)N(O)[C@H](C)C(=O)O[C@H]2C(C)C)O[C@@H]1C	11	10	
CC[C@H](C)C[C@H]1CC[C@](O)([C@](C)(O)C(=O)N[C@@H]2C(=O)N3NCCC[C@@H]3C(=O)N(O)[C@@H](C)C(=O)N[C@@H](C)C(=O)N3NCCC[C@H]3C(=O)N(O)[C@H](C)C(=O)O[C@H]2C(C)C)O[C@@H]1C	60		
CC[C@H](C)C[C@H]1CC[C@](O)([C@](C)(O)C(=O)N[C@@H]2C(=O)N3NCCC[C@@H]3C(=O)N(O)[C@@H](C)C(=O)N[C@H](C)C(=O)N3NCCC[C@H]3C(=O)N(O)[C@H](C)C(=O)O[C@H]2C(C)C)O[C@@H]1C	> 100	> 100	
CC[C@H](C)C[C@H]1CC[C@](O)([C@](C)(O)C(=O)N[C@@H]2C(=O)N3NCCC[C@@H]3C(=O)N(O)[C@@H](C)C(=O)NCC(=O)N3NCCC[C@H]3C(=O)N(OC)[C@H](C)C(=O)O[C@H]2C(C)C)O[C@@H]1C	2	2	
CC[C@H](C)C[C@H]1CC[C@](O)([C@](C)(O)C(=O)N[C@@H]2C(=O)N3NCCC[C@@H]3C(=O)N(OC)[C@@H](C)C(=O)NCC(=O)N3NCCC[C@H]3C(=O)N(OC)[C@H](C)C(=O)O[C@H]2C(C)C)O[C@@H]1C	6	3	
CCC(C)C[C@H]1CC[C@H]([C@](C)(O)C(=O)N[C@@H]2C(=O)N3NCCC[C@@H]3C(=O)N(O)[C@@H](C)C(=O)NCC(=O)N3NCCC[C@H]3C(=O)N(O)[C@H](C)C(=O)O[C@H]2C(C)C)O[C@@H]1C (single isomer, unassigned)	3.6	0.3	
CC(C)[C@@H]1OC(=O)[C@@H](C)N(O)C(=O)[C@@H]2CCCNN2C(=O)CNC(=O)[C@H](C)N(O)C(=O)[C@H]2CCCNN2C(=O)[C@H]1NC(=O)[C@@](C)(O)CCCc1ccccc1	> 100	9	
CC[C@H](C)C[C@H]1CC[C@](O)([C@](C)(O)C(=O)N[C@@H]2C(=O)N[C@H](CCCNC(C)=O)C(=O)N(O)[C@@H](C)C(=O)NCC(=O)N3NCCC[C@H]3C(=O)N(O)[C@H](C)C(=O)O[C@H]2C(C)C)O[C@@H]1C	> 100	> 50	
CCC(C)C[C@H]1CC[C@](O)([C@](C)(O)C(=O)N[C@H]2COC(=O)[C@@H](C)NC(=O)[C@@H]3CCCNN3C(=O)CNC(=O)[C@H](C)N(O)C(=O)[C@H]3CCCNN3C2=O)O[C@@H]1C (single isomer, unassigned)	> 100	26	

Reference: ChEMBL document CHEMBL1151577, “The inhibition of C5a receptor binding by analogs of L-156,602, a cyclic hexadepsipeptide antibiotic” (Bioorg Med Chem Lett, 1992)
